Data as given in patent US10864179B2, “Histone deacetylase inhibitors for the use in the treatment of drug resistant melanoma” (STICHTING HET NEDERLANDS KANKER INSTITUUT-ANTONI VAN …, priority 2015, dated 2020).
“Also recorded” adds a separate entry of the source.

Legend:
A375R cells = test: Long-term colony formation assay, vemurafenib-resistant A375R cells; details: for sensitivity of cells in proliferation assay, HDACi panel: Vorinostat 1 uM, 01994 4 uM, AR2 0.5 uM, Pracinostat 0.25 uM, Quisinostat 25 nM, 8 day
Protocol: Long-term colony formation assay of melanoma (A375 and A375R clone) cells. […] Cells were fixed and stained at day 12. […] Long-term colony formation assay of melanoma Mel888 parental and vemurafenib-resistant Mel888R cells (three different clones Mel888RC-A, B and C) were seeded at the same cell density in 6-well plates and cultured in presence of vorinostat (1 microM) and/or vemurafenib (2 microM). Cells were fixed and stained at day 10. […] Long-term colony formation assay of melanoma A375 parental and double-resistant cells seeded in 12-well plates and treated with 2 microM vemurafenib and/or 0.5 microM CDX101 (CDX). Medium and drugs were refreshed every 2-3 days. Cells were fixed and stained on day 10.
Medium and drugs were refreshed every 2-3 days. Cells were fixed and stained on day 10
Long-term colony formation assay of A375 parental and MAPKi resistant A375R, A375DR cells treated sulfasalazine and vorinostat. Medium and drugs were refreshed every 2-3 days. Cells were fixed and stained on day 10.
The A375 melanoma cell line was obtained from ATCC. MEL888 were gifts from D. Peeper (Amsterdam, The Netherlands). WM266-4 and Colo741 cell line were provided by R. Marais (Manchester, UK). These cells are BRAF mutated melanoma. All the cell lines were cultured in DMEM medium supplemented with 10% FBS, 1% penicillin/streptomycin and 2 mM I-glutamine. Vemurafenib-resistant A375 and MEL888 cells were generated by long term (at least 3 months) culturing with 2 microM vemurafenib. Dabrafenib-Trametinib combination resistant A375 cells were generated by long term (at least 3 months) culturing with 0.25 microM Dabrafenib and 10 nM Trametinib (MEK inhibitor). Vemurafenib-resistant ex-vivo clones were isolated from immunodeficient BalbC mice, which were long-term treated with PLX4720-chow (50 mg/kg). All the in vitro cell lines have been STR profiled.
Cells were seeded into 6-well plates (5*10^4˜1*10^5 cells per well) or 12-well plates (4*10^4 cells per well) and cultured both in the absence and presence of drugs as indicated.

A375 melanoma cells [1] = test: Long-term colony formation assay, A375 cells; type: cell-based, human; details: for effect of HDACi on the anti-proliferative effect of vemurafenib: HDACi together with vemurafenib; for proliferation in long-term colony formation assay: drug(s) without HDACi/BRAFi partner; for effect of HDACi on dabrafenib, trametinib and their combination: FIG. 3
From the text: (§1) FIG. 1. BRAF inhibition is antagonized by HDAC inhibition in melanoma. A). […] The cells were fixed and stained at day 14. B). Short-term proliferation assay of melanoma (A375) cells. […] Error bars represent s.d. of biological triplicates. C,D). HDAC inhibitors and vemurafenib have antagonistic effects on MAPK pathway and HDAC inhibitors can rescue cells from vemurafenib-induced apoptosis. A375 were pre-treated with 1 microM vorinostat and 1 microM entinostat for 48 hrs and then treated with the combination of HDAC inhibitor (1 microM) and vemurafenib (1 microM) for additional 24 hrs. The levels of p-RB, p-MEK, MEK, cleaved PARP (cl. PARP) and ac-H3 were detected by western blot. β-actin served as the loading control.
(§2) FIG. 2. Other HDACi also confer resistance to vemurafenib. […] B).
(§3) FIG. 3. HDACi confers resistance to the combination of a MEK and a BRAF inhibitor in melanoma. A,B,C).

[2] = system: MEL888RC-A, B and C cells; test: Long-term colony formation assay, vemurafenib-resistant MEL888 clones; type: cell-based; details: vorinostat 1 microM, CXD101 0.5 microM
From the text: FIG. 5. […] Cells were fixed and stained on day 8.
(§4) These cells are BRAF mutated melanoma.

A375DR cells = test: Long-term colony formation assay, dabrafenib/trametinib double-resistant A375DR cells; type: cell-based, human
From the text: as §4

[3] = system: NRAS-mutant melanoma patients; details: phase II; cited from earlier work
SK-MEL-147R cells = test: Long-term colony formation assay, MEKi-resistant SK-MEL-147R cells; type: cell-based, human
Protocol: (a). Long-term colony formation assay of SK-MEL-147 and MEKi-resistant SK-MEL-147R cells cultured in the presence of 1 μM vorinostat and/or 100 nM Trametinib.
(b). Long-term colony formation assay of SK-MEL-147 and SK-MEL-147R cells cultured in the presence of indicated concentrations of vorinostat and/or 5 mM NAC.
(§5) The A375, SK-Mel-147 and SK-Mel-2 melanoma cell lines were obtained from ATCC. […] Trametinib resistant SK-mel-147 and SK-mel-2 were generated by long term culturing with 25 nM (first month), 50 nM (second month) and 100 nM (third month) trametinib.
(§6) For full details, see ref. (Huang et al., 2009).

SK-MEL-2R cells = test: Long-term colony formation assay, MEKi-resistant SK-MEL-2R cells; type: cell-based, human; details: 5 mM NAC
Protocol: (i). Long-term colony formation assay of SK-MEL-2 and MEKi-resistant SK-MEL-2R cells cultured in the presence of 1 μM vorinostat and/or 100 nM Trametinib.
(j) Long-term colony formation assay of SK-MEL-2 and SK-MEL-2R cells cultured in the presence of indicated concentrations of vorinostat and/or 5 mM NAC.
as §5, §6

[4] = system: A375 melanoma tumor xenografts; test: A375 mouse xenografts; type: in vivo, BalbC immunodeficient nude mice; details: for tumor volume of PLX4720-resistant tumors after randomization: PLX4720 300 mg/kg in chow and/or vorinostat 100 mg/kg i.p.
Protocol: FIG. 7. HDACi is effective in treatment of BRAF inhibitor resistant melanoma in vivo. A,B). […] A375 melanoma cells were grown as tumor xenografts in BalbC immunodeficient nude mice. After tumor establishment (150-200 mm3), mice were treated with (A). vehicle, PLX4720 (40 mg/kg supplemented in the chow). Upon development of BRAF inhibitor resistance, mice receiving PLX4720 were randomized in four arms (B) receiving: vehicle, PLX4720 (300 mg/kg supplemented in the chow), Vorinostat (100 mg/kg i.p.) or PLX4720 (300 mg/kg supplemented in the chow) plus Vorinostat (100 mg/kg i.p.). C). Resistance to vemurafenib in A375 cells is mediated through reactivation of MAP kinase pathway. Biochemical responses of A375-resistant ex vivo clones and A375 parental cell line treated with 2 microM vemurafenib were documented by western blot analysis. Cells were harvested at 24 hrs after drug treatment. […] HSP90 served as the loading control. […].
A375 melanoma cells (2×10^6 cells per mouse) were injected subcutaneously into the right posterior flanks of 7-week-old immunodeficient BalbC or NMRI nude female mice (6 mice per group; Janvier Laboratories, The Netherlands). Tumor formation was monitored twice a week, and tumor volume based on caliper measurements was calculated by the modified ellipsoidal formula (tumor volume=½(length×width2)). When tumors reached a volume of approximately 0.3 cm^3, mice were randomized into treatment arms. PLX4720 (Plexxikon) was formulated in the chow by Research Diets dosed at 300 mg/kg and vorinostat was formulated in DMSO/saline solution, and it was dosed at 100 mg per kg daily by intraperitoneal injection. When resistance to PLX4720 arises in the group treated with PLX4720, mice bearing tumors of approximately 0.3 cm^3 were again randomized into the treatment arms with the same drug dosages. Animal experiments were approved by the Animal Ethics Committee of the Netherlands Cancer Institute and performed in accordance with institutional, national and European guidelines for Animal Care and Use.
To investigate whether HDACi treatment is a suitable therapy for MPAK pathway inhibitor resistant melanoma, e.g. BRAF inhibitor resistant melanoma, we injected parental vemurafenib sensitive A375 cells into a cohort of 24 BalbC immunodeficient nude mice. After tumors had reached an average volume of 150-200 mm3, we started treatment with vemurafenib by feeding the animals chow supplemented with 40 mg/kg of PLX4720. […] After that period, tumors began to increase in size, indicative of the development of drug resistance (FIG. 7A). When drug resistant tumors in the mice had reached a size of 800 mm3, mice were randomized to four cohorts that were treated either with:
A) no drug; B) PLX4270; C) PLX4270 and vorinostat; D) Vorinostat.

[5] = system: 4397A, 4397B, 4393R and 4393L cells; test: Long-term colony formation assay, ex vivo PLX4720-resistant A375 clones; type: cell-based, human; details: four cell lines with in vivo acquired PLX4720 resistance
From the text: FIG. 8. In vitro and ex vivo BRAF inhibitor-resistant clones are hypersensitive to HDACi.
We explanted four PLX4720 resistant tumors from mice immediately after acquisition of PLX4720 resistance in vivo and continued to culture these cells in vitro in the presence of BRAF inhibitor. These cells were designated 4397A, 4397B, 4393R and 4393L.

Colo741 melanoma cells = test: Long-term colony formation assay, Colo741 cells; type: cell-based; details: for effect of HDACi on dabrafenib, trametinib and their combination: FIG. 3
From the text: as §2, §3

p-MEK in A375 cells = test: Western blot of MAPK pathway and apoptosis markers, A375 cells; type: cell-based, human; details: single drug
From the text: as §1
FIG. 7. HDACi is effective in treatment of BRAF inhibitor resistant melanoma in vivo. A,B). […] A375 melanoma cells were grown as tumor xenografts in BalbC immunodeficient nude mice. After tumor establishment (150-200 mm3), mice were treated with (A). vehicle, PLX4720 (40 mg/kg supplemented in the chow). Upon development of BRAF inhibitor resistance, mice receiving PLX4720 were randomized in four arms (B) receiving: vehicle, PLX4720 (300 mg/kg supplemented in the chow), Vorinostat (100 mg/kg i.p.) or PLX4720 (300 mg/kg supplemented in the chow) plus Vorinostat (100 mg/kg i.p.). C). Resistance to vemurafenib in A375 cells is mediated through reactivation of MAP kinase pathway. […]

A375 melanoma cells [6] = test: Short-term proliferation assay (IncuCyte), A375 cells; type: cell-based, human; details: each drug alone, 1 microM
From the text: as §1

A375 cells = test: Staining of beta-galactosidase activity; type: cell-based, human
From the text: β-galactosidase activity in cells was detected using Histochemical Staining Kit (CS0030-1KT) from Sigma-Aldrich. The detection was applied according to the manufacturer's instructions.

[7] = system: p-MEK in WM2664 melanoma cells; test: Western blot of p-MEK, WM2664 cells; type: cell-based; details: single drug
Protocol: Cells were seeded in medium containing 10% fetal bovine serum (FBS) for indicated time, and then washed with PBS and lysed with RIPA buffer supplemented with protease inhibitor (cOmplete, Roche) and Phosphatase Inhibitor Cocktails II and III (Sigma). All lysates were freshly prepared and processed with Novex NuPAGE Gel Electrophoresis Systems (Invitrogen).

XCT (SLC7A11) mRNA = test: qRT-PCR of SLC7A11 in SK-MEL-147 and SK-MEL-147R cells; details: 72 hours vorinostat treatment
Protocol: The relative mRNA levels were detected by qRT-PCR analysis after 72 hours vorinostat treatment. Error bars represent s.d. of measurement replicates (n=3, *** p<0.001, Student's t-test).
RNA isolation from cell lines harvested with TRIzol reagent (Invitrogen) according to the manufacturer's instruction. cDNA synthesis was performed with Maxima Universal First Strand cDNA Synthesis Kit (# K1661, Thermo scientific) according to manufacturer's instruction.

CC(C)[C@H](C(=O)Nc1ccc(C(=O)NO)cc1)c1ccccc1 [AR2]
sensitivity of cells in proliferation assay, HDACi panel (A375R cells; A375R cells): very sensitive

Cc1nn(C)cc1CN1CCC(c2ccc(C(=O)Nc3ccccc3N)cc2)CC1 [CXD101]
effect of HDACi on the anti-proliferative effect of vemurafenib (A375 melanoma cells [1]): conferred resistance to vemurafenib | proliferation in long-term colony formation assay (A375 melanoma cells [1]): mildly anti-proliferative | sensitivity of cells in long-term colony formation assay [2]: hypersensitive | sensitivity of cells in long-term colony formation assay (A375DR cells; 0.5 microM CDX101): very sensitive | sensitivity of cells in long-term colony formation assay (A375DR cells; 0.5 microM CDX101, listed as CDX101): hypersensitive

Cn1cnc2c(F)c(Nc3ccc(Br)cc3F)c(C(=O)NOCCO)cc21 [MEK162]
patients with objective responses [3]: 20% | patients with stable disease [3]: 43%

CC(=O)N[C@@H](CS)C(=O)O [NAC, N-acetyl-L-cysteine]
effect on the toxic effect of vorinostat (SK-MEL-147R cells; SK-MEL-147R cells, 5 mM NAC): rescued | effect on the toxic effects of vorinostat (SK-MEL-2R cells): countered, at least in part

CCCS(=O)(=O)Nc1ccc(F)c(C(=O)c2c[nH]c3ncc(Cl)cc23)c1F [PLX4720]
tumor volume of PLX4720-resistant tumors after randomization [4]: continued tumor volume increase | period of tumor growth suppression before resistance ([4]; chow supplemented with 40 mg/kg of PLX4720): around 3 months | tumor growth ([4]; chow supplemented with 40 mg/kg of PLX4720, start at 150-200 mm3): significant suppression of tumor growth

CCCCc1nc2cc(/C=C/C(=O)NO)ccc2n1CCN(CC)CC [Pracinostat]
sensitivity of cells in proliferation assay, HDACi panel (A375R cells; A375R cells): very sensitive

Cn1cc(CNCC2CCN(c3ncc(C(=O)NO)cn3)CC2)c2ccccc21 [Quisinostat]
sensitivity of cells in proliferation assay, HDACi panel (A375R cells; A375R cells): very sensitive

O=C(/C=C/c1cccc(S(=O)(=O)Nc2ccccc2)c1)NO [belinostat]
effect of HDACi on the anti-proliferative effect of vemurafenib (A375 melanoma cells [1]): conferred resistance to vemurafenib | proliferation in long-term colony formation assay (A375 melanoma cells [1]): mildly anti-proliferative | sensitivity of cells to HDACi [5]: very sensitive

CC(C)(C)c1nc(-c2cccc(NS(=O)(=O)c3c(F)cccc3F)c2F)c(-c2ccnc(N)n2)s1 [dabrafenib]
proliferation in long-term colony formation assay (A375 melanoma cells [1]): effective in limiting proliferation | proliferation in long-term colony formation assay (Colo741 melanoma cells; MAPK pathway inhibitor(s) without HDACi): effective in limiting proliferation

Nc1ccccc1NC(=O)c1ccc(CNC(=O)OCc2cccnc2)cc1 [entinostat]
effect of HDACi on dabrafenib, trametinib and their combination (A375 melanoma cells [1]): able to confer resistance to these drugs | p-MEK levels (p-MEK in A375 cells): increases p-MEK levels | effect of HDACi on dabrafenib, trametinib and their combination (Colo741 melanoma cells): able to confer resistance to these drugs | sensitivity of cells in long-term colony formation assay [2]: hypersensitive

O=C(O)c1cc(/N=N/c2ccc(S(=O)(=O)Nc3ccccn3)cc2)ccc1O [sulfasalazine]
toxicity in long-term colony formation assay (A375DR cells; sulfasalazine 0.2 to 0.4 mM): toxic | toxicity in long-term colony formation assay (A375R cells; A375R cells, sulfasalazine 0.2 to 0.4 mM): toxic

O=C(CCCCCCC(=O)Nc1ccccc1)NO [vorinostat]
effect of HDACi on dabrafenib, trametinib and their combination (A375 melanoma cells [1]): able to confer resistance to these drugs | effect of HDACi on the anti-proliferative effect of vemurafenib (A375 melanoma cells [1]): almost completely negated the anti-proliferative effects of vemurafenib | proliferation in long-term colony formation assay (A375 melanoma cells [1]): inhibition of proliferation | cell proliferation (cell confluence, IncuCyte) (A375 melanoma cells [6]): restricted cell proliferation | acidic beta-galactosidase (senescence marker) (A375 cells): induction of acidic beta-galactosidase | p-MEK levels [7]: increase in phospho-MEK (p-MEK) | effect of HDACi on dabrafenib, trametinib and their combination (Colo741 melanoma cells): able to confer resistance to these drugs | effect of HDACi on the anti-proliferative effect of vemurafenib (Colo741 melanoma cells; HDACi together with vemurafenib): conferred resistance to vemurafenib | tumor volume of PLX4720-resistant tumors after randomization [4]: rapid decline in tumor volume; also recorded: complete disappearance of the tumors after two months; also recorded: suppress melanoma growth | sensitivity of cells to HDACi [5]: very sensitive | sensitivity of cells in long-term colony formation assay (SK-MEL-147R cells; SK-MEL-147R versus parental SK-MEL-147, 1 μM vorinostat, 100 nM Trametinib): acquired significant sensitivity | XCT (SLC7A11) mRNA expression (XCT (SLC7A11) mRNA): reduced XCT (also known as SLC7A11) mRNA expression; also recorded: suppressed SLC7A11 expression | sensitivity of cells in long-term colony formation assay (A375R cells; A375R cells versus parental A375, vorinostat 1 microM, vemurafenib 2 microM): far more sensitive to vorinostat than parental A375 cells; also recorded: massive inhibition of proliferation; also recorded: hypersensitive | sensitivity of cells in proliferation assay, HDACi panel (A375R cells; A375R cells): very sensitive
